Results reported in US20090029955A1, “Pyridothienopyrimidine Derivatives” (priority 2004, published 2009).

Each molecule was assayed on PDE4 (assay: PDE4 Assay Procedure ([3H]-cAMP SPA)). Conditions: 15 nM [3H]-cAMP, 1 hour at room temperature, SPA beads; compounds tested from 10 μM to 10 pM.
Type: biochemical
Protocol: Compounds to be tested were resuspended in DMSO at a stock concentration of 1 mM. […] These dilutions were done in 96-well plates. In some cases, plates containing diluted compounds were frozen before being assayed. In these cases, the plates were thawed at room temperature and stirred for 15 minutes.
Ten microliters of the diluted compounds were poured into a “low binding” assay plate. […] The reaction was initiated by adding ten microliters of a solution containing PDE4. The plate was then incubated under stirring for 1 hour at room temperature. After incubation the reaction was stopped with 50 microlitres of SPA beads, and the reaction was allowed to incubate for another 20 minutes at room temperature before measuring radioactivity using standard instrumentation.
The reaction mixture was prepared by adding 90 ml of H2O to 10 ml of 10× assay buffer (500 mM Tris pH 7.5, 83 mM MgCl2, 17 mM EGTA), and 40 microlitres 1 μCi/μL [3H]-cAMP. SPA beads solution was prepared by adding 500 mg to 28 ml H2O for a final concentration of 20 mg/ml beads and 18 mM zinc sulphate.
For CC1(C)CCc2c(N3CCCC3)nc3sc4c(NCc5cccnc5)ncnc4c3c2C1 [Example 25], the IC50 was 1.5 nM. In the case of CC1(C)CCc2c(-c3ccco3)nc3sc4c(NCCN5CCOCC5)ncnc4c3c2C1 [Example 62, 5-(2-Furyl)-2,2-dimethyl-N-(2-morpholin-4-ylethyl)-1,2,3,4-tetrahydropyrimido[4′,5′:4,5]thieno[2,3-c]isoquinolin-8-amine], the IC50 is reported as 3.8 nM. Molecule CCOC(=O)N1CCN(CCNc2ncnc3c2sc2nc(N(C)C)c4c(c23)CC(C)(C)CC4)CC1 [Example 43, Ethyl 4-(2-{[5-(dimethylamino)-2,2-dimethyl-1,2,3,4-tetrahydropyrimido[4′,5′:4,5]thieno[2,3-c]isoquinolin-8-yl]amino}ethyl)piperazine-1-carboxylate] has an IC50 of 7.9 nM. Molecule CN(C)c1nc2sc3c(NCc4cccnc4)ncnc3c2c2c1CC(C)(C)C2 [Example 79, N^4,N^4,2,2-Tetramethyl-N-(pyridin-3-ylmethyl)-2,3-dihydro-1H-cyclopenta[4′,5′]pyrido[3′,2′:4,5]thieno[3,2-d]pyrimidin-4,7-diamine] has an IC50 of 4.6 nM. In the case of CC1(C)CCc2c(N3CCCC3)nc3sc4c(NCCN5CCOCC5)ncnc4c3c2C1 [Example 23, 2,2-Dimethyl-N-(2-morpholin-4-ylethyl)-5-pyrrolidin-1-yl-1,2,3,4-tetrahydropyrimido[4′,5′:4,5]thieno[2,3-c]isoquinolin-8-amine], the IC50 is reported as 8.1 nM. With CCN(C)c1nc2sc3c(NCC(=O)NCC4CCCO4)ncnc3c2c2c1CCC(C)(C)C2 (stereo not drawn) [Example 54, N^2-{5-[Ethyl(methyl)amino]-2,2-dimethyl-1,2,3,4-tetrahydropyrimido[4′,5′:4,5]thieno[2,3-c]isoquinolin-8-yl}-N^1-(tetrahydrofuran-2-ylmethyl)glycinamide] the IC50 was 10 nM. For CC(C)Cc1nc2sc3c(NCCCN4CCCC4=O)ncnc3c2c2c1CCC(C)(C)C2 [Example 60, 1-{3-[(5-Isobutyl-2,2-dimethyl-1,2,3,4-tetrahydropyrimido[4′,5′:4,5]thieno[2,3-c]isoquinolin-8-yl)amino]propyl}pyrrolidin-2-one], the IC50 was 4.8 nM. For CC1(C)CCc2c(N3CCCC3)nc3sc4c(NCc5ccncc5)ncnc4c3c2C1 [Example 24, 2,2-Dimethyl-N-(pyridin-4-ylmethyl)-5-pyrrolidin-1-yl-1,2,3,4-tetrahydropyrimido[4′,5′:4,5]thieno[2,3-c]isoquinolin-8-amine], the IC50 was 14 nM. In the case of CC1(C)CCc2c(N3CCSCC3)nc3sc4c(NCc5ccccn5)ncnc4c3c2C1 [Example 16, 2,2-Dimethyl-N-(pyridin-2-ylmethyl)-5-thiomorpholin-4-yl-1,2,3,4-tetrahydropyrimido[4′,5′:4,5]thieno[2,3-c]isoquinolin-8-amine], the IC50 is reported as 3 nM.
